Where two headings read alike, the source gives them in different places. Positions of bridges follow the written chain, without caps; N, C: chain ends. Residues, ends and D or L forms follow the SMILES beside them.
Experiments:
rKV1.6 = biological target: T1, rKV1.6 (Rattus norvegicus, UniProt P17659); experiment: Two-electrode voltage-clamp on Xenopus laevis oocytes expressing rKV1.6; assay type: cell-based
T1 construct: expressed in transfected cells; host or cells: Xenopus laevis oocytes injected with cRNA
T1 sequence (P17659 whole entry): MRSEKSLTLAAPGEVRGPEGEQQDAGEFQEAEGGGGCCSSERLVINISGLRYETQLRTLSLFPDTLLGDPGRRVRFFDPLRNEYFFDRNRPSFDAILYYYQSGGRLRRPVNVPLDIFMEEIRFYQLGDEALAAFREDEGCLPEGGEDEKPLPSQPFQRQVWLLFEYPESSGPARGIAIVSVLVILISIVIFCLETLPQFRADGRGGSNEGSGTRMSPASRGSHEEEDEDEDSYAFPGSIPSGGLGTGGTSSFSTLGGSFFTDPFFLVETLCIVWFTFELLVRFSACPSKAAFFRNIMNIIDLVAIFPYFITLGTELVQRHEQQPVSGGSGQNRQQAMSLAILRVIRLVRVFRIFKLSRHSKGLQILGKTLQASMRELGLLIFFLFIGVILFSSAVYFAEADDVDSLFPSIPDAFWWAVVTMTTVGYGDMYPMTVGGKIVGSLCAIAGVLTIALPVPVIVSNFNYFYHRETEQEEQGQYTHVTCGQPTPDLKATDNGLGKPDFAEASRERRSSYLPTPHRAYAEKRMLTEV
Description: (§1) The pharmacological effect of AbeTx1 was analyzed by heterologous expression of 12 voltage-gated potassium channels isoforms (rKV1.1, Genbank NM173095; rKV1.2, Genbank NM012970; hKV1.3, Genbank L23499; rKV1.4,Genbank NM012971; rKV1.5, Genbank NM012972; rKV1.6, Genbank NM575671; Shaker IR from Drosophila melanogaster, Genbank CG12348; rKV2.1, Genbank NM013186; hKV3.1, Genbank NM004976; rKV4.2, Genbank NM031730; rKV4.3, Genbank NM031739 and hERG, Genbank NM000238), and three voltage-gated sodium channel subtypes (rNaV1.2, Genbank NM012647; rNaV1.4, Genbank M26643 and BgNaV1.1, from Blattella germanica) (r, rat; h, human) in oocytes from Xenopus laevis. The linearized plasmids were transcribed using a T7 or SP6 mMESSAGE-mMACHINE transcription kit (Life Technologies, Austin, TX, USA). Oocytes were injected with 20–50 nL of cRNA at a concentration of 1 ng·nL^−1 using a microinjector (Drummond Scientific, Broomall, PA, USA). The oocytes were stored for 1–3 days at 16 °C until sufficient expression of voltage-gated ion channels was achieved. Oocytes were maintained in an ND96 solution (in mM: 96 NaCl, 2 KCl, 1.8 CaCl2, 2 MgCl2 and 5 HEPES; pH 7.4), supplemented with 50 µg·mL^−1 gentamicin sulfate.
(§2) Two-electrode voltage-clamp recordings were performed at room temperature (18–22 °C) using a Geneclamp 500 amplifier (Molecular Devices, Sunnyvale, CA, USA) controlled by a pClamp data acquisition system (Axon Instruments, Union City, CA, USA). ND96 was used as bath solution. Whole-cell currents from oocytes were recorded 1–3 days after injection. Voltage and current electrodes were filled with KCl (3 M). The resistance of both electrodes was kept between 0.8–1.0 MΩ. The elicited currents were filtered at 0.5 or 2 kHz using a four-pole low-pass Bessel filter. Leak subtraction was performed using a -P/4 protocol. KV1.1-KV1.6 and Shaker IR currents were evoked by 500 ms depolarization to 0 mV, followed by a 500 ms pulse to −50 mV, from a holding potential of −90 mV. KV2.1, KV3.1, KV4.2, and KV4.3 currents were elicited by 500 ms pulses to + 20 mV from a holding potential of −90 mV. Current traces of hERG channels were elicited by applying a +40 mV pulse for 2.5 s, followed by a step to −120 mV for 2.5 s. Sodium current traces were evoked by 100 ms depolarization steps from a holding potential of −90 mV to 0 mV. Concentration-response curves were constructed by adding different AbeTx1 or analogs concentrations directly to the bath solution. The percentage of the KV blockade was plotted against the logarithm of the applied concentrations and fitted with the Hill Equation (1):y = 100/[1 + (IC50/[toxin]) × h](1) where y is the amplitude of the toxin-induced effect, IC50 is the toxin concentration at half-maximal efficacy, [toxin] is the toxin concentration, and h is the Hill coefficient. To investigate the effects on the voltage dependence of activation, current traces were evoked by 10 mV depolarization steps from a holding potential of −90 mV. Data were normalized to the maximal K^+ current amplitude, plotted against prepulse potential, and fitted using the Boltzmann Equation (2):IK/Imax = [1 + (exp(Vg − V)/k] − 1(2) where Imax represents maximal potassium current (IK), Vg is the voltage corresponding to half-maximal current, and k is the slope factor. Each experimental data represents mean ± standard error of at least three oocytes (n ≥ 3) from different frogs. Effect of the toxin on current-voltage experiments was statistically examined by comparing the control condition and the presence of toxin using the Student’s paired t-test. P-values < 0.05 are considered to be statistically significant. Data were analyzed using Clampfit 10.4 (Molecular Devices, Sunnyvale, CA, USA) and Origin v8.1 software (Origin Lab, Northampton, MA, USA), under the institutional license of the University of São Paulo.

rKV1.1 = biological target: T2, rKV1.1 (Rattus norvegicus, UniProt P10499); experiment: Two-electrode voltage-clamp on Xenopus laevis oocytes expressing rKV1.1; assay type: cell-based
T2 construct: expressed in transfected cells; host or cells: Xenopus laevis oocytes injected with cRNA
T2 sequence (P10499 whole entry): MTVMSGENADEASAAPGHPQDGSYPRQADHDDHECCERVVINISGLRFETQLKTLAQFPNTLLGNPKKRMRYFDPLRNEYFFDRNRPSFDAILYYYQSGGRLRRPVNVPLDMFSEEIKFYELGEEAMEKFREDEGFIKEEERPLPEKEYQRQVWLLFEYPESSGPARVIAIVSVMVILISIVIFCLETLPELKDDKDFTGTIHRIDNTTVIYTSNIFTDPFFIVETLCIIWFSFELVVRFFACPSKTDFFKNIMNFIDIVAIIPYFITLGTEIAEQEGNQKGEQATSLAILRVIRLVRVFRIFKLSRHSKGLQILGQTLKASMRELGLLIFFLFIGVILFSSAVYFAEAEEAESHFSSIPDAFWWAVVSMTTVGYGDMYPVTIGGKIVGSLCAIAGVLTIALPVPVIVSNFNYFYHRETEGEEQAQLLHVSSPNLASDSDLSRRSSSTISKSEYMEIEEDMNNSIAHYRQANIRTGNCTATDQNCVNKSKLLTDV
Description: as §1, §2

| SMILES | KV1.6 K+ currents reduced to (rKV1.6; 920 μM TEA alone in bath solution) | IC50 (rKV1.6; external TEA in bath solution, concentration stated as IC50, read-out: TEA IC50 on KV1.6) | KV1.1 current reduced to (rKV1.1; 200 μM TEA alone in bath solution) | IC50 (rKV1.1; external TEA in bath solution, concentration stated as IC50, read-out: TEA IC50 on KV1.1) | IC50 (rKV1.6; concentration-response curve, percentage blocked current fitted with Hill equation, TEVC oocytes, 0 mV from −90 mV, mean ± SE, n ≥ 3, SEM, read-out: KV1.6 IC50) | IC50 (rKV1.1; concentration-response curve, percentage blocked current fitted with Hill equation, TEVC oocytes, 0 mV from −90 mV, mean ± SE, n ≥ 3, SEM, read-out: KV1.1 IC50) |
| --- | --- | --- | --- | --- | --- | --- |
| CC[N+](CC)(CC)CC [TEA, tetraethylammonium, reference compound] | 51.50 ± 0.65% | 920 µM | 52.20 ± 1.74% | 200 µM |  |  |
| C[C@@H]1NC(=O)[C@@H]2CCCN2C(=O)[C@H](CCCNC(=N)N)NC(=O)[C@@H]2CSSC[C@H](NC(=O)[C@H]([C@@H](C)O)NC(=O)[C@H](CCCCN)NC(=O)[C@@H](NC(=O)[C@@H](N)CCCNC(=N)N)CSSC[C@@H](C(=O)NCC(=O)O)NC(=O)[C@H](CC(N)=O)NC(=O)[C@@H]3CCCN3C1=O)C(=O)N[C@@H](CO)C(=O)N[C@@H](CCCCN)C(=O)NCC(=O)N[C@@H](CCCNC(=N)N)C(=O)N2 [Lys13Ala] (H-RCKTCSKGRCRPAPNCG-OH; disulfide 2-16, 5-10) |  |  |  |  | 1.08 µM | 4.55 µM |

— article PMC6213216, “AbeTx1 Is a Novel Sea Anemone Toxin with a Dual Mechanism of Action on Shaker-Type K^+ Channels Activation” (Marine Drugs, 2018)
